Target: T1, human Edg-1 receptor (Homo sapiens, UniProt P21453)
T1 construct: expressed in transfected cells; membrane preparation
Experiment: GTP-γ-S assay using human Edg-1 receptors (scintillation proximity assay, membrane preparation from CHO Flp-In cell line)
Format: biochemical
Details: example compound at 10 μM; relative to 10 μM S1P; GTP-γ-S SPA, human Edg-1 membranes
Source text: Determination of the Pharmacological Activity A) GTP-γ-S Assay Using Human Edg-1 Receptors
In order to determine the Edg-1 receptor activation by the compounds of the invention, a GTP-γ-S (guanosine 5′-[γ-thio]triphosphate) assay for G-protein coupled receptor binding based on the scintillation proximity assay principle was used, employing a cell membrane preparation from a CHO Flp-In cell line which constitutively overexpresses the human Edg-1 receptor.
The Flp-In™ expression system (Invitrogen, cat. no. K6010-01) allows the generation of stable mammalian cell lines into which the gene of interest has been integrated through homologous recombination at a specific genomic location called Flp Recombination Target (FRT) site by means of a Flp recombinase encoded by the pOG44 expression plasmid. The integration of the pcDNA5/FRT expression construct into the Flp-In host cell line genome results in the transcription of the gene of interest. The stably transfected cells become hygromycin-resistant.
One day prior to transfection, 200 000 Flp-In-CHO cells were seeded in Ham F-12 medium (Invitrogen, cat. no. 31765) supplemented with 10% fetal calf serum (FCS; Perbio Science, cat. no. SH30068.03) in a 6-well plate and incubated at 37° C./5% CO2 overnight. Using the FuGENE® 6 transfection reagent (Roche, cat. no. 11988387001), cells were cotransfected with the Flp recombinase expression plasmid pOG44 and a modified plasmid additionally containing the edg-1 gene (accession no. NM_001400) termed as pcDNA5-FRT-TO_nFLAG_DEST-EDG-1 with a 9:1 ratio. To obtain the modified pcDNA5-FRT-TO_nFLAG_DEST plasmid, the Invitrogen plasmid pcDNA5/FRT/TO (Invitrogen, cat. no. V6520-20) was adapted to the Gateway® (Invitrogen) cloning system by inserting a Gateway cassette containing attR recombination sites flanking a ccdB gene and a chloramphenicol-resistance gene (Gateway conversion system, Invitrogen, cat. no. 11828-029). In addition a FLAG tag epitope was added before the 5′ att recombination site to allow recombinant expression of N-terminally FLAG-tagged proteins.
For the transfection of one well, 1.08 μg of pOG44 and 0.12 μg of pcDNA5-FRT-TO_nFLAG_DEST-EDG-1 were mixed to 100 μl of serum-free Ham F-12 medium containing 6 μl of FuGENE® 6 transfection reagent. After 20 min of incubation, the transfection reagent/DNA complex was distributed dropwise on the cells. The cells were incubated for 24 h at 37° C. Then the cells from 3 wells each were transferred to a T75 flask (Greiner Cellstar®, cat. no. 658175) containing Ham F-12 medium supplemented with 10% of FCS but without antibiotic and were incubated another 24 h. 48 h after transfection, the medium was replaced by selection medium (Ham F-12 supplemented with 10% of FCS and 300 μg/ml of hygromycin B (Invitrogen, cat. no. 10687-010)). The medium was exchanged every 2 to 3 days until a resistant population of cells had grown. […] After 2 weeks of selection, the cells were transferred into T175 flasks (Greiner Cellstar®, cat. no. 660175) and cultivated for batch production. Cells were harvested from the culture flasks by short treatment (2 to 5 min) with Accutase (PAA, cat. no. L11-007), resuspended in selection medium (see above) and centrifuged at 200×g for 5 min. Cells were resuspended in a mixture of 90% of FCS and 10% of dimethylsulfoxide and stored frozen in liquid nitrogen.
A membrane preparation was obtained by standard methods from the afore-described CHO Flp-In cell line constitutively overexpressing the human Edg-1 receptor. Briefly, the cryopreserved cells were taken in culture and grown until confluency in T175 cell culture flasks (Becton Dickinson, cat. no. 35 5001). […]

T1 sequence (P21453 whole entry): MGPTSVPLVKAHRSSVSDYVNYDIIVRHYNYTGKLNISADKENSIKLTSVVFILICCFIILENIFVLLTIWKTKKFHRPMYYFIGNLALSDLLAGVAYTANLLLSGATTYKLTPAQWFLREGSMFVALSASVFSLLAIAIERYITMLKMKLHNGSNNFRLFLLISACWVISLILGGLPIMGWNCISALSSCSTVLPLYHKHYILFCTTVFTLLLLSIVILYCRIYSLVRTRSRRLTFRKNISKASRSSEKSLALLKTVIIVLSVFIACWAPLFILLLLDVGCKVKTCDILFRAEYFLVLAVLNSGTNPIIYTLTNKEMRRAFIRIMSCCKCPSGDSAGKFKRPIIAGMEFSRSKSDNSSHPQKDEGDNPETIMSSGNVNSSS

% Activation (Edg-1 receptor activation in percent of the activation by 10 μM S1P) | Compound
127% | CCCOc1nc(Cn2c(=O)n(C)c3ccccc32)nc2oc(-c3cccc(F)c3)nc12 [Example 133]
124% | CCCOc1nc(CN2CCOCC2)nc2oc(-c3cccc(Cl)c3)nc12 [Example 27]
115% | CCCOc1nc(CN2CCC(F)(F)CC2)nc2oc(-c3ccc(Cl)c(F)c3)nc12 [Example 90]
102% | CCCOc1nc(CN2C(=O)CCCC2=O)nc2oc(-c3cccc(F)c3)nc12 [Example 63]
82% | CCCOc1nc(CN2CCC(C(F)(F)F)CC2)nc2oc(-c3cccc(F)c3)nc12 [Example 94]
107% | Cc1cccc(-c2nc3c(OCCCF)nc(Cc4ccc(Cl)cc4)nc3o2)c1 [Example 120]
67% | CCCOc1nc(CN2CCC(OC)CC2)nc2oc(-c3cccc(F)c3)nc12 [Example 145]
106% | CCCOc1nc(CN2CCCOCC2)nc2oc(-c3ccc(OC)c(F)c3)nc12 [Example 92]
73% | Cc1cccc(-c2nc3c(OC4CCCC4)nc(Cc4ccc(Cl)cc4)nc3o2)c1 [Example 107]
114% | CCCOc1nc(CN2CCCOCC2)nc2oc(-c3cc(Cl)ccc3OC)nc12 [Example 74]
111% | CCCOc1nc(CN2CCC(F)(F)CC2)nc2oc(-c3ccc(Cl)c(Cl)c3)nc12 [Example 79]
123% | Cc1cccc(-c2nc3c(OC(C)C)nc(CN4CCOCC4)nc3o2)c1 [Example 186]
91% | CCCOc1nc(Cc2ccc(Cl)cc2)nc2oc(-c3cccc(C)c3)nc12 [Example 101]
102% | CCCOc1nc(CN2CCCC(C(F)(F)F)C2)nc2oc(-c3cccc(F)c3)nc12 (centres unmarked) [Example 304]
118% | CCCOc1nc(CN2CCCOCC2)nc2oc(-c3cccc(Cl)c3)nc12 [Example 29]
81% | CCCOc1nc(Cn2ccnc2C)nc2oc(-c3cccc(F)c3)nc12 [Example 48]
121% | CCCOc1nc(CN2CCC(F)(F)CC2)nc2oc(-c3ccco3)nc12 [Example 96]
114% | CCCOc1nc(Cc2ccc(Cl)cc2)nc2oc(-c3cc(C)c(OCC(O)CN4CCOCC4)c(C)c3)nc12 (centres unmarked) [Example 193]

The next lines start with the compound.

Compound | % Activation (Edg-1 receptor activation in percent of the activation by 10 μM S1P)
CCCOc1nc(CN2CC(=O)N(Cc3ccccc3)C2=O)nc2oc(-c3cccc(F)c3)nc12 [Example 146] | 56%
CCCOc1nc(Cc2ccc(Cl)cc2)nc2oc(-c3ccc(F)c(C)c3)nc12 [Example 172] | 78%
CCOc1nc(Cc2ccc(Cl)cc2)nc2oc(-c3cc(C)c(OCC(O)CS(=O)(=O)c4nnc(C)[nH]4)c(C)c3)nc12 (centres unmarked) [Example 272] | 105%
Fc1cccc(-c2nc3c(OCC4CC4)nc(CCc4ccc(Cl)cc4)nc3o2)c1 [Example 7] | 23%
C=CCOc1nc(Cc2ccc(Cl)c(Cl)c2)nc2oc(-c3cccc(F)c3)nc12 [Example 141] | 85%
CCCOc1nc(Cc2ccc(Cl)cc2)nc2oc(-c3cccc(N(C)C)c3)nc12 [Example 137] | 55%
CCOc1nc(Cc2ccc(Cl)cc2)nc2oc(-c3cc(C)c(OCC(=O)NCCN(C)C)c(C)c3)nc12 [Example 249] | 104%
CCCOc1nc(Cc2ccc(Cl)cc2)nc2oc(-c3cccc(C)c3F)nc12 [Example 171] | 115%
CCCOc1nc(Cc2ccc(Cl)cc2)nc2oc(-c3ccc(OC)c(C)c3)nc12 [Example 176] | 94%
CCCOc1nc(Cc2ccc(Cl)cc2)nc2oc(-c3cc(C)c(OCC(=O)N4CC[C@H](O)C4)c(C)c3)nc12 [Example 231] | 104%
CCOc1nc(Cc2ccc(Cl)cc2)nc2oc(-c3cc(C)c(OCC(=O)NCCC(=O)OC(C)(C)C)c(C)c3)nc12 [Example 255] | 74%
CCCOc1nc(Cc2ccc(Cl)cc2)nc2oc(-c3cc(C)c(OCCCNCCC(=O)OC(C)(C)C)c(C)c3)nc12 [Example 230] | 101%
CCOc1nc(Cc2ccc(Cl)cc2)nc2oc(-c3cc(C)c(OCCCSc4nnc(C5CC5)[nH]4)c(C)c3)nc12 [Example 276] | 54%
CCCOc1nc(Cc2ccc(Cl)cc2)nc2oc(-c3cc(C)c(OCCCNCCC(=O)O)c(C)c3)nc12 [Example 224] | 113%
CCCOc1nc(Cc2ccc(Cl)cc2)nc2oc(-c3cc(C)c(OCCCNCc4nnn[nH]4)c(C)c3)nc12 [Example 227] | 142%
CCOc1nc(Cc2ccc(Cl)cc2)nc2oc(-c3cc(C)c(OCC(O)CNCC(c4cccnc4)N(C)C)c(C)c3)nc12 (centres unmarked) [Example 221] | 84%
CCOc1nc(Cc2ccc(Cl)cc2)nc2oc(-c3cccc(OCC(=O)N[C@@H](CO)C(=O)O)c3)nc12 [Example 297] | 99%
CCCOc1nc(Cc2ccc(Cl)cc2)nc2oc(-c3cc(OC)ncc3Cl)nc12 [Example 177] | 106%
CCCOc1nc(Cc2ccc(Cl)cc2)nc2oc(-c3ccc(C(C)=O)s3)nc12 [Example 175] | 116%
CCOc1nc(Cc2ccc(Cl)cc2)nc2oc(-c3cc(C)c(OCC(O)CSc4nnc(C5CC5)[nH]4)c(C)c3)nc12 (centres unmarked) [Example 281] | 79%
CCCOc1nc(Cc2ccc(Cl)cc2)nc2oc(-c3cccs3)nc12 [Example 103] | 85%
CCOc1nc(Cc2ccc(Cl)cc2)nc2oc(-c3cc(C)c(OCC4(CO)COC4)c(C)c3)nc12 [Example 301] | 97%

Same assay, conditions: example compound at 10 μM; relative to 10 μM S1P; GTP-γ-S SPA, human Edg-1 membranes; read-out: % Activation (Edg-1 receptor activation in percent of the activation by 10 μM S1P)

activation at 10 µM | Compound
119% | CCCOc1nc(C(C)c2ccccc2)nc2oc(-c3cccc(C)c3)nc12 (centres unmarked) [Example 13, 5-(1-Phenyl-ethyl)-7-propoxy-2-(3-methyl-phenyl)-oxazolo[5,4-d]pyrimidine]
117% | CCCOc1nc(CN2CCOCC2)nc2oc(-c3cc(F)ccc3Cl)nc12 [Example 1, 2-(2-Chloro-5-fluoro-phenyl)-5-morpholin-4-ylmethyl-7-propoxy-oxazolo[5,4-d]pyrimidine]

Continued, compound first:

Compound | activation at 10 µM
CCOc1nc(C(C)c2ccccc2)nc2oc(-c3cccc(F)c3)nc12 (centres unmarked) [Example 15, 7-ethoxy-2-(3-fluoro-phenyl)-5-(1-phenyl-ethyl)-oxazolo[5,4-d]pyrimidine] | 104%
CCCOc1nc(Cc2ccc(Cl)cc2)nc2oc(-c3cc(C)c(OC)c(C)c3)nc12 [Example 168, 5-(4-chloro-benzyl)-2-(4-methoxy-3,5-dimethyl-phenyl)-7-propoxy-oxazolo[5,4-d]pyrimidine] | 117%

From patent publication US8735387B2, “Oxazolopyrimidines as Edg-1 receptor agonists” (Sanofi, priority 2008, dated 2014)
